Data as given in patent publication US10882813B2, “Method for the synthesis of ferric oraganic compounds” (Biophore India Pharmaceuticals Pvt. Ltd., priority 2014, dated 2021).
Values joined by “and” are separate entries in the source; they are usually repeats but may differ in a detail not shown here. Identical values can stand only once.

Assays:
[1] = Intrinsic dissolution rate; format: physicochemical; settings: final product of the synthesis, amorphous powder
[2] = BET active (specific) surface area analysis, nitrogen adsorbate; format: physicochemical; settings: for Specific surface area: final product of the synthesis, amorphous powder dried under vacuum at 25-30° C.; for Surface area of the sample: after one blending with water and acetone mixture and drying under vacuum at 50-55° C.
Experimental: The analysis of BET is according to the method described as: out gassing a portion of the test sample, about 100 mg at 90° C. for 1 hour at ambient pressure using nitrogen as the adsorbate gas.

With Ferric Citrate [Example V] the Intrinsic dissolution rate [1] was 0.31 mg/sq.cm/min and the Specific surface area [2] was 7.8 sq.m/g.
With Ferric Citrate [Example VII] the “Surface area of the sample” value [2] was 20.0 sq.m/g and the surface area ([2]; after repeating the same water and acetone process) was 12.5 sq.m/g.
For Ferric Citrate [Example II], the Specific surface area [2] was 10.6 sq.m/g.
Work on Ferric Citrate [Example IV] yielded an Intrinsic dissolution rate [1] of 0.231 mg/sq.cm/min and a Specific surface area [2] of 11.0 sq.m/g.
With Ferric Citrate [Example III] the Specific surface area [2] was 12.0 sq.m/g.
For Ferric Citrate [Example VI], the “Surface area of the sample” value [2] was 10.3 sq.m/g.
For `O=C([O-])CC(O)(CC(=O)[O-])C(=O)[O-].[Fe+3]` [Ferric Citrate, Iron (III) 2-hydroxypropane-1,2,3-tricarboxylate, reference compound], the surface area ([2]; starting Ferric Citrate before treatment with water and acetone mixture) was 30.0 Sq.m/g and 28.6 Sq.m/g.
For Ferric Citrate [Example I], the Specific surface area [2] was 12.36 sq.m/g.
